Patent publication US10807966B2, “Heterocyclic compounds as kinase inhibitors” (TRANSLATIONAL DRUG DEVELOPMENT, LLC, priority 2016, dated 2020)

Tests used:
ROCK1 = ROCK1 (Homo sapiens (Human), UniProt Q13464); assay: ROCK1 kinase inhibition assay (peptide phosphorylation, LabChip 3000); assay type: biochemical; conditions: 5 μM ATP, 3 nM ROCK1, 3 hours at 25° C.
Description: (§1) The peptide is >98% purity by Capillary Electrophoresis. The peptide is phosphorylated by the protein kinase ROCK1 or ROCK2. The ROCK1 or ROCK2 enzyme, substrate, and cofactors (ATP and Mg^2+) are combined in a well of a microtiter plate and incubated for 3 hours at 25° C. At the end of the incubation, the reaction is quenched by the addition of an EDTA-containing buffer. The substrate and product are separated and quantified electrophoretically using the microfluidic-based LABCHIP® 3000 Drug Discovery System from Caliper Life Sciences (Hopkinton, Mass.).
(§2) The components of the assay mixture are:
(§3) 10 μM Sodium Orthovanadate
(§4) 10 μM Beta-Glycerophosphate
(§5) 5 μM ATP (for ROCK1) or 7 μM ATP (for ROCK2)
(§6) 3 nM ROCK1 or 2.5 nM ROCK2 enzyme
Substrate and product peptides present in each sample are separated electrophoretically using the LABCHIP® 3000 capillary electrophoresis instrument. […] Change in the relative fluorescence intensity of the substrate and product peaks is the parameter measured reflecting enzyme activity. Capillary electrophoregramms (RDA acquisition files) are analyzed using HTS Well Analyzer software (Caliper Life Sciences, Hopkinton, Mass.). The kinase activity in each sample is determined as the product to sum ratio (PSR): P/(S+P), where P is the peak height of the product peptide and S is the peak height of the substrate peptide. For each compound, enzyme activity is measured at various concentrations (12 concentrations of compound spaced by 3× dilution intervals). […] Percent inhibition (Pinh) is determined using the following equation: Pinh=(PSR0%−PSRinh)/(PSR0%−PSR100%)*100 where PSRinh is the product sum ratio in the presence of inhibitor, PSR0% is the average product sum ratio in the absence of inhibitor, and PSR100% is the average product sum ratio in 100%-inhibition control samples. The IC50 values of inhibitors are determined by fitting the inhibition curves (Pinh versus inhibitor concentration) by 4 parameter sigmoidal dose-response model using XLfit 4 software (IBDS).

ROCK2 = ROCK2 (Homo sapiens (Human), UniProt O75116); assay: ROCK2 kinase inhibition assay (peptide phosphorylation, LabChip 3000); assay type: biochemical; conditions: 7 μM ATP, 2.5 nM ROCK2, 3 hours at 25° C.
Description: as §1, §2, §3, §4, §5, §6
Substrate and product peptides present in each sample are separated electrophoretically using the LABCHIP® 3000 capillary electrophoresis instrument. […] Change in the relative fluorescence intensity of the substrate and product peaks is the parameter measured reflecting enzyme activity. Capillary electrophoregramms (RDA acquisition files) are analyzed using HTS Well Analyzer software (Caliper Life Sciences, Hopkinton, Mass.). The kinase activity in each sample is determined as the product to sum ratio (PSR): P/(S+P), where P is the peak height of the product peptide and S is the peak height of the substrate peptide. For each compound, enzyme activity is measured at various concentrations (12 concentrations of compound spaced by 3× dilution intervals). Negative control samples (0%-inhibition in the absence of inhibitor) and positive control samples (100%-inhibition in the presence of 20 mM EDTA) are assembled in replicates of four and are used to calculate %-inhibition values for each compound at each concentration. Percent inhibition (Pinh) is determined using the following equation: Pinh=(PSR0%−PSRinh)/(PSR0%−PSR100%)*100 where PSRinh is the product sum ratio in the presence of inhibitor, PSR0% is the average product sum ratio in the absence of inhibitor, and PSR100% is the average product sum ratio in 100%-inhibition control samples. The IC50 values of inhibitors are determined by fitting the inhibition curves (Pinh versus inhibitor concentration) by 4 parameter sigmoidal dose-response model using XLfit 4 software (IBDS).

K562 cells = assay: Cell viability assay (CellTiter-Blue), K562; assay type: cell-based; conditions: Homo sapiens; K562 (does not express ITD-FLT3), 72 hours treatment
Description: (§7) Cell viability in the presence of varying concentrations of the above listed compounds at different time points was used to assess cytotoxicity and the effect of the compounds on cell proliferation.
Cell viability was measured by the […]-BLUE® cell viability assay from Promega (Madison, Wis.). This procedure measures the conversion of the indicator dye (resazurin) to resorufin, an indicator of cell viability. Following treatment, growth media was removed and cells were incubated with 20 μl of […]-BLUE® Reagent and growth media for 1-4 hours at 37° C. Fluorescence values were measured at 535/590 nm using a Beckman-Coulter DTX-880 microplate reader.
Cells were grown to 70% confluency, trypsinized, counted, and seeded in 96 well flat-bottom plates at a final concentration of 2.5×10^3-5×10^3 cells/well (Day 0). Cells were allowed to incubate in growth media for 24 hours to allow for maximum adhesion. Treatment with the test agents or standard agents began on Day 1 and continued for 72 hours. At the 72-hour time point, treatment containing media was removed. Viable cell numbers were quantified by the […]-BLUE® cell viability assay as described above. Experiments were repeated at least twice with the same concentrations to determine growth inhibitory activity. Results from these studies were used to calculate an IC50 value (concentration of drug that inhibits cell growth by 50 percent of control) for each compound.
(§8) For single agent and combination studies, data from each experiment was collected and expressed as % Cell Growth using the following calculation: % Cell Growth=(ftest/fvehicle)×100 Where ftest is the fluorescence of the tested sample, and fvehicle is the fluorescence of the vehicle in which the drug is dissolved. Dose response graphs and IC50 values were generated using Prism 4 software (GraphPad) using the following equation: Y=(Top−Bottom)/(1+10^((logIC50-X)[…])) Where X is the logarithm of the concentration and Y is the response. Y starts at the Bottom and goes to the Top with a sigmoid shape.
(§9) The experiments also evaluated the selectivity of the compounds for inhibiting growth of cancer cells carrying a mutation in the Flt3 gene. The MV411 cell line expresses the mutant allele of Flt3 with internal tandem duplications (ITD) of the gene. See Quentmeier et al., “FLT3 Mutations in Acute Myeloid Leukemia Cell Lines,” Leukemia 17(1), 2003, 120-124. […] See Grafone et al., “Monitoring of FLT3 Phosphorylation Status and Its Response to Drugs By Flow Cytometry in AML Blast Cells,” Hematol Oncol. 26(3), 2008, 159-166.

MV411 cells = assay: Cell viability assay (CellTiter-Blue), MV411; assay type: cell-based; conditions: for FLT3-ITD+ Selectivity (K562/MV411): ratio of K562 to MV411 IC50; for IC50: Homo sapiens, MV4-11, MV411 (ITD-FLT3+), 72 hours treatment
Description: as §7
This procedure measures the conversion of the indicator dye (resazurin) to resorufin, an indicator of cell viability. […] Fluorescence values were measured at 535/590 nm using a Beckman-Coulter DTX-880 microplate reader.
Cells were grown to 70% confluency, trypsinized, counted, and seeded in 96 well flat-bottom plates at a final concentration of 2.5×10^3-5×10^3 cells/well (Day 0). Cells were allowed to incubate in growth media for 24 hours to allow for maximum adhesion. Treatment with the test agents or standard agents began on Day 1 and continued for 72 hours. At the 72-hour time point, treatment containing media was removed. […] Experiments were repeated at least twice with the same concentrations to determine growth inhibitory activity.
as §8, §9

Sequence of ROCK2 (O75116 whole entry): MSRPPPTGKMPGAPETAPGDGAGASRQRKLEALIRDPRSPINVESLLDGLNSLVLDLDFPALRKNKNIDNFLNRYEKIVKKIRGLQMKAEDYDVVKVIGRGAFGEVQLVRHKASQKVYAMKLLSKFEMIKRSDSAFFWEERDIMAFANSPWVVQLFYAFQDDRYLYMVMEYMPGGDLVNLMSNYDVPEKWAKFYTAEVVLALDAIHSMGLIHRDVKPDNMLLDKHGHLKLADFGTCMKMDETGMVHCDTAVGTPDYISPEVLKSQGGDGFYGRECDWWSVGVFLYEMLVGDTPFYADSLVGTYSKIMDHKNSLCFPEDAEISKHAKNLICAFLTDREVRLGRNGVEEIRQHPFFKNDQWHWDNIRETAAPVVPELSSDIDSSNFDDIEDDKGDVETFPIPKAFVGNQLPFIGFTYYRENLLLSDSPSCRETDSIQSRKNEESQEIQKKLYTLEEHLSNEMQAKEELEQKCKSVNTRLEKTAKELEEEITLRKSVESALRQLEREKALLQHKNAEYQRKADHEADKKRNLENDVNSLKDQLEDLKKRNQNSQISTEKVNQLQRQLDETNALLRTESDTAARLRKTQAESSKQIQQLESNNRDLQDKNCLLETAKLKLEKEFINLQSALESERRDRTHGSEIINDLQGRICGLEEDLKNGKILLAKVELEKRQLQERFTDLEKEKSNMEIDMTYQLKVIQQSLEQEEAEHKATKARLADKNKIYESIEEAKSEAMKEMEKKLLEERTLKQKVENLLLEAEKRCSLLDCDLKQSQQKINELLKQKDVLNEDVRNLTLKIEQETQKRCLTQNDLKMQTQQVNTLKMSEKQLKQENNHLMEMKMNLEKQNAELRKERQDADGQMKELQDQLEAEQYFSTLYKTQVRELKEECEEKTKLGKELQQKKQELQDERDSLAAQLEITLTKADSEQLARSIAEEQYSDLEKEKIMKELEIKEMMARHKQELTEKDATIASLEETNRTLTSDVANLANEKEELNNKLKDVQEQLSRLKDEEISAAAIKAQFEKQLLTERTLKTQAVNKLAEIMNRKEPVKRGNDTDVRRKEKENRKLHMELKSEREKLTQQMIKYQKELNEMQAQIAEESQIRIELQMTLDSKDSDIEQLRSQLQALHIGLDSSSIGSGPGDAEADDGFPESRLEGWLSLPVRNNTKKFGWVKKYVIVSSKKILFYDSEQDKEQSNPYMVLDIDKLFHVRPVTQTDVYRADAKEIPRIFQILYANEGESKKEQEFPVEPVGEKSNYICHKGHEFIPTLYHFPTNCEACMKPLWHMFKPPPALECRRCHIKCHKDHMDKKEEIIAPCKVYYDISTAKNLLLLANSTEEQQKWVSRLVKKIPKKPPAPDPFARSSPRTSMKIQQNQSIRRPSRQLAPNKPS
Sequence of ROCK1 (Q13464 whole entry): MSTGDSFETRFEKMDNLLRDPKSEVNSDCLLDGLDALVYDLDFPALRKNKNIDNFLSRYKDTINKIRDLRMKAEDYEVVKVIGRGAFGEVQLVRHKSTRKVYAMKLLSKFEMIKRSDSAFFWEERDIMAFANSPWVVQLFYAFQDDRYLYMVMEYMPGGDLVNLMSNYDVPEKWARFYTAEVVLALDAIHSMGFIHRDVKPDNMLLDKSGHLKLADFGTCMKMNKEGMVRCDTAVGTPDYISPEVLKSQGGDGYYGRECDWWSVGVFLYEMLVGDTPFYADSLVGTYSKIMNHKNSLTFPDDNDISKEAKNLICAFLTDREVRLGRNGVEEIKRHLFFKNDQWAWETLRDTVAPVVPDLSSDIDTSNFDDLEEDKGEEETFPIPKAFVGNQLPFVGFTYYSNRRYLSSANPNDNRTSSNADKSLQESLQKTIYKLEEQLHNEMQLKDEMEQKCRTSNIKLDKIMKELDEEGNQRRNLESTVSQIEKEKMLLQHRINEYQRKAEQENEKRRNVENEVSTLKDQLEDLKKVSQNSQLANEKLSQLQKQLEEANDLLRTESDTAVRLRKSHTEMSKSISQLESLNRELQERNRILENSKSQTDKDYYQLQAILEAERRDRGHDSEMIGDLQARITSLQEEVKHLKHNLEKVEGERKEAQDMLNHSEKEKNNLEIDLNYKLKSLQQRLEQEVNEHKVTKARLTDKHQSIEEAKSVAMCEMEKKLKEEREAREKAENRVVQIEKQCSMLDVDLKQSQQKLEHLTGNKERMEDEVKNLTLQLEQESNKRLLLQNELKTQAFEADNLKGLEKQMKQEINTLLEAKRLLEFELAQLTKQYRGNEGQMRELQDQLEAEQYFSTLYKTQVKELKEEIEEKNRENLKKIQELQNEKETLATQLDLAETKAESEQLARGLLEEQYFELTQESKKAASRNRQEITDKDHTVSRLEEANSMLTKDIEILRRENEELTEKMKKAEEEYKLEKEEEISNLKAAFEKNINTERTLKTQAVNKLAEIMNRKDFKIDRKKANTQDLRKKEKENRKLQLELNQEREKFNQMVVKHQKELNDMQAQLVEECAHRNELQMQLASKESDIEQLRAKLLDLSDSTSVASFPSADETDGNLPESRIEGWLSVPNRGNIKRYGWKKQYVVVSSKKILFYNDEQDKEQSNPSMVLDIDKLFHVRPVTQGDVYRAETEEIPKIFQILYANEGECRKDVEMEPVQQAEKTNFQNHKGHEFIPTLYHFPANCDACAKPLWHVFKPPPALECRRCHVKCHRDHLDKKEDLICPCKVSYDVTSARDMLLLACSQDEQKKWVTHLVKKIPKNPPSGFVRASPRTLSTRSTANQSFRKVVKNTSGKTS

For `O=C(N[C@H](CO)c1cccc(F)c1)c1cc(-c2ccncc2)[nH]n1` [Compound 1], the IC50 (ROCK1) was 207 nM, the IC50 (ROCK2) was 27.6 nM and the IC50 (K562 cells) was > 100000 nM. The “FLT3-ITD+ Selectivity (K562/MV411)” value (MV411 cells) was >1.

For `COc1cccc(CNC(=O)c2cc3ccc(-c4ccncc4)nc3s2)c1` [Compound 39], the IC50 (ROCK1) was 65.1 nM, the IC50 (ROCK2) was 17.4 nM and the IC50 (K562 cells) was > 100000 nM. The IC50 (MV411 cells) was 7100 nM and the “FLT3-ITD+ Selectivity (K562/MV411)” value (MV411 cells) was >14.

`COc1cccc(CNC(=O)c2cc3ccc(-c4cn[nH]c4)nc3s2)c1` [Compound 40] gave an IC50 (ROCK1) of 164 nM, an IC50 (ROCK2) of 17 nM and an IC50 (MV411 cells) of 14800 nM. For the same molecule, the “FLT3-ITD+ Selectivity (K562/MV411)” value (MV411 cells) was >7.

With `COc1cccc([C@@H](C)NC(=O)c2cc3ccc(-c4cn[nH]c4)nc3s2)c1` [Compound 58] the IC50 (ROCK2) was 4.5 nM, the IC50 (K562 cells) was 31000 nM and the IC50 (MV411 cells) was 1600 nM. For the same molecule, the “FLT3-ITD+ Selectivity (K562/MV411)” value (MV411 cells) was 19.

Work on `COc1cccc(CN(CCN(C)C)C(=O)c2cc3ccc(-c4cn[nH]c4)nc3s2)c1` [Compound 59] yielded an IC50 (ROCK2) of 20 nM, an IC50 (K562 cells) of 25000 nM and an IC50 (MV411 cells) of 4500 nM. The “FLT3-ITD+ Selectivity (K562/MV411)” value (MV411 cells) was 6.

`CC(C)NC(=O)c1cccc(CNC(=O)c2cc3ccc(-c4cn[nH]c4)nc3s2)c1` [Compound 60] was tested, and the IC50 (K562 cells) was 65000 nM, the IC50 (MV411 cells) was 12900 nM and the “FLT3-ITD+ Selectivity (K562/MV411)” value (MV411 cells) was 5.

`COc1cccc([C@@H](CO)NC(=O)c2cc3ccc(-c4cn[nH]c4)nc3s2)c1` [Compound 61] was tested, and the IC50 (ROCK2) was 7.1 nM, the IC50 (K562 cells) was 54000 nM and the IC50 (MV411 cells) was 8200 nM. For the same molecule, the “FLT3-ITD+ Selectivity (K562/MV411)” value (MV411 cells) was 7.

`C[C@@H](NC(=O)c1cc(-c2ccncc2)n[nH]1)c1cccc(F)c1` [Compound 64] was tested, and the IC50 (ROCK2) was 29.2 nM.

`C[C@@H](NC(=O)c1cc(-c2ccncc2)n[nH]1)c1cccc(Cl)c1` [Compound 66] showed an IC50 (ROCK2) of 9.8 nM.

For `O=C(N[C@H](CO)c1cccc(Cl)c1)c1cc(-c2ccncc2)n[nH]1` [Compound 67], the IC50 (ROCK2) was 10.1 nM.

`O=C(N[C@H](CO)c1ccccc1)c1cc(-c2ccncc2)n[nH]1` [Compound 68] was tested, and the IC50 (ROCK2) was 509 nM.
